Measurements as given in patent US20030170309A1, “Pharmaceutical compositions containing polymer and drug assemblies” (priority 2001, published 2003).
≈ marks a conversion by molar mass, not a printed value. Values belong to the compound of their own block, whether it stands above or below them.

How the values were obtained:
[1] = Dissolution test of amorphous Drug 1 in PBS with varying HPMCAS-MF concentration; format: physicochemical; details: amorphous Drug 1 10 mg/mL added, PBS 37°C
Procedure: First, HPMCAS-MF was dissolved in PBS with stirring at 37° C. and 1.5 mL of this solution was placed in a microcentrifuge tube.

[2] = format: physicochemical
Procedure: To determine the composition of the polymer/drug assemblies, solutions formed from the dispersions of Example 30 and Example 31 in PBS were analyzed using HPLC and NMR, as described in Example 4. […] To measure the free drug concentration using NMR, 2 wt % NaTC/POPC was added to the solution. By measuring the amount of drug that partitioned into NaTC/POPC micelles, the concentration of free drug in PBS was calculated using the equation: […]
where DM is the concentration of drug in micelles (measured by NMR), Kp is the partition coefficient for drug partitioning between water and micelles (30,000), Df is the free drug concentration in PBS, and VM is the volume ratio occupied by micelles in the PBS solution (cm^3 micelles/cm^3 solution=0.021). […] The amount of polymer contained in the polymer/drug assemblies was calculated by subtracting the free polymer and the polymer in the precipitate from the total polymer added to solution (contained in the solid dispersions). […]
The dispersions of Examples 30 and 31 were added to PBS with varying amounts of NaTC/POPC, and the concentration of drug in NaTC/POPC micelles was measured by NMR spectroscopy. […]
The free drug concentration with no micelles present was calculated as follows. […]
Aqueous solutions formed from the solid dispersion of Example 40 were analyzed using DLS and NMR, as described in Examples 3 and 4. […]

[3] = Solubility of the drug alone (crystalline or amorphous); details: for solubility: thermodynamic from solid
[4] = rats, colloidal solution; cited from earlier work
[5] = dispersion of YM022 in HPMC and polyoxyethylene hydrogenated castor oil administered to aqueous solution; cited from earlier work
[6] = HPMCAS-MF 0 mg/mL (amorphous drug alone)

HPLC Total Dissolved Drug 1 at 90 min. [1, 6]: 224 µg/mL | HPLC Total Dissolved Drug 1 at 1200 min. [1, 6]: 196 µg/mL | HPLC Total Dissolved Drug 1 at 90 min. ([1]; HPMCAS-MF 0.5 mg/mL): 447 µg/mL | HPLC Total Dissolved Drug 1 at 1200 min. ([1]; HPMCAS-MF 0.5 mg/mL): 289 µg/mL | HPLC Total Dissolved Drug 1 at 90 min. ([1]; HPMCAS-MF 1 mg/mL): 487 µg/mL | HPLC Total Dissolved Drug 1 at 1200 min. ([1]; HPMCAS-MF 1 mg/mL): 203 µg/mL | HPLC Total Dissolved Drug 1 at 90 min. ([1]; HPMCAS-MF 5 mg/mL): 4928 µg/mL | HPLC Total Dissolved Drug 1 at 1200 min. ([1]; HPMCAS-MF 5 mg/mL): 1550 µg/mL | HPLC Total Dissolved Drug 1 at 90 min. ([1]; HPMCAS-MF 10 mg/mL): 7453 µg/mL | HPLC Total Dissolved Drug 1 at 1200 min. ([1]; HPMCAS-MF 10 mg/mL): 5431 µg/mL | HPLC Total Dissolved Drug 1 at 90 min. ([1]; HPMCAS-MF 20 mg/mL): 8099 µg/mL | HPLC Total Dissolved Drug 1 at 1200 min. ([1]; HPMCAS-MF 20 mg/mL): 7451 µg/mL
SMILES: O=C(N[C@@H](Cc1ccccc1)[C@@H](O)C(=O)N1C[C@@H](O)[C@@H](O)C1)c1cc2cc(Cl)ccc2[nH]1 [Drug 1, 5-chloro-1H-indole-2-carboxylic acid [(1S)-benzyl-3-((3R, 4S)-dihydroxypyrroldin-1-yl-)-(2R)-hydroxy-3-oxypropyl] amide]

Kp, partition coefficient for drug partitioning between water and micelles [2]: 30,000 | Drug 2 Concentration, NaTC/POPC Conc. 0 wt % ([2]; crystalline Drug 2, value obtained in a separate experiment): 0.01 µg/mL | solubility ([3]; PBS with 2% NaTC/POPC, fassgf or other biorelevant, Solubility of crystalline Drug 2 in 2% NaTC/POPC in PBS, 2% NaTC/POPC in PBS): 6 µg/mL (≈ 9.99 µM) | solubility ([3]; PBS, Solubility of the crystalline Drug 2): 0.01 µg/mL (≈ 0.0167 µM) | solubility ([3]; aqueous solution without micelles, Solubility of Drug 2 in aqueous solution without micelles, crystalline Drug 2, separate experiments): ~0.01 µg/mL (≈ 0.0167 µM) | Solubility of Drug 2 in aqueous solution without micelles ([3]; crystalline Drug 2, separate experiments): approximately 0.010 μg/mL
SMILES: CCOC(=O)N1c2ccc(C(F)(F)F)cc2C(N(Cc2cc(C(F)(F)F)cc(C(F)(F)F)c2)C(=O)OC)CC1CC (stereo not drawn) [Drug 2, 4-[(3,5-bis-trifluoromethyl-benzyl)-methoxycarbonyl-amino]-2-ethyl-6-trifluoromethyl-3,4-dihydro-2H-quinoline-1-carboxylic acid ethyl ester]

solubility ([3]; Solubility of Drug 3, crystalline Drug 3): 0.004 µg/mL (≈ 0.00745 µM)
SMILES: Cc1ncccc1CNC(=O)c1ccc2c(c1)CC[C@@H]1C[C@@](O)(CCC(F)(F)F)CC[C@@]21Cc1ccccc1 [Drug 3, 2-phenanthrenecarboxamide, 4b,5,6,7,8,8a,9,10-octahydro-7-hydroxy-N-[(2-methyl-3-pyridinyl)methyl]-4b-(phenylmethyl)-7-(3,3,3-trifluoropropyl)-, (4bS,7S,8aR)-]

SMILES: Cc1cccc(NC(=O)N[C@@H]2N=C(c3ccccc3)c3ccccc3N(CC(=O)c3ccccc3C)C2=O)c1 [YM022]
Absorption on oral administration [4]: good absorption | Mean diameter of colloidal particles [5]: 160 nm
